Source: patent US20080233621A1, “Method For Producing Alcohol and Carboxylic Acid Having Optical Activity” (API Corporation, priority 2004, published 2008)

The compounds below were run on carbonyl reductase IsADH1 (assay: Substrate specificity of IsADH1: carbonyl reductase activity by NADPH consumption (absorbance at 340 nm)). Conditions: purified carbonyl reductase, 2 mM substrate, 0.32 mM NADPH, 100 mM Tris-HCl (pH 7.5), 37° C.; activity to 1-acetoxy-3-chloro-2-propanone defined as 100.
Assay type: biochemical, Issatchankia scutulata var. scutulata JCM1828 strain
Design: key: —: Activity cannot be detected; Trace: a slight level of activity is detected
Protocol: The Issatchankia scutulata var. scutulata JCM1828 strain was cultured in 2 L of a medium (80 g of glucose, 20 g of yeast extract (manufactured by Difco), and 40 g/L peptone (manufactured by Kyokuto Pharmaceutical Industrial Co., Ltd.)), and a cell mass was then prepared by centrifugation. 150 g of the obtained wet cell mass was suspended in 10 mM potassium phosphate buffer (pH 7) and 0.1 mM DTT (hereinafter simply referred to as a “buffer”), and it was then crushed with DYNO-MILL KDL (manufactured by Shimaru Enterprises Corp.). Thereafter, the cell mass residue was eliminated by centrifugation, so as to obtain a cell-free extract. Thereafter, PEG6000 was added to the cell-free extract to a concentration of 90 g/L, and the obtained mixture was then left at rest at 4° C. for 1 hour. Thereafter, the precipitate was eliminated by centrifugation. The obtained supernatant was then subjected to anion exchange chromatography using DEAE Sepharose Fast Flow (manufactured by Amersham Biosciences), hydrophobic interaction chromatography using Butyl Sepharose 4 Fast Flow (manufactured by Amersham Biosciences), anion exchange chromatography using MonoQ (manufactured by Amersham Biosciences), and Gel filtration chromatography using Superdex 200 (manufactured by Amersham Biosciences), so that carbonyl reductase of interest could be purified to a single band in electrophoresis.
During purification, the activity of carbonyl reductase was measured by reacting the reaction solution containing an enzyme solution (100 mM Tris-HCl (pH 7.5), 0.32 mM NADPH, and 2 mM 1-acetoxy-3-chloro-2-propanone) at 37° C. and then calculating the amount of NADPH consumed based on a decrease in the absorbance at 340 nm. For the measurement of the absorbance, SPECTRAmax 190 (manufactured by Molecular Devices) was used. It is to be noted that the activity necessary for consuming 1 nmol of NADPH for 1 minute in the aforementioned reaction was defined as 1 U.
With regard to various carbonyl compounds, a reaction solution (100 mM Tris-HCl (pH 7.5), 0.32 mM NADPH, and a 2 mM substrate) containing the carbonyl reductase solution purified in (2) above was prepared, and it was reacted at 37° C. The amount of NADPH consumed in the reaction solution was monitored based on the absorbance at 340 nm, so as to measure carbonyl reductase activity to each compound. For the measurement of the absorbance, SPECTRAmax 190 (manufactured by Molecular Devices) was used. The relative activity of carbonyl reductase to each substrate compound obtained when carbonyl reductase activity to 1-acetoxy-3-chloro-2-propanone was defined as 100 is shown in Table 4.

| SMILES | Relative activity |
| --- | --- |
| CCC(=O)C(C)=O [2,3-pentadione] | Trace |
| CCOC(=O)CC(=O)c1cccnc1 [Ethyl nicotinoylacetate] | 20.7 |
| O=C1CC2CCC1C2 (centres unmarked) [2-norbornanone] | — |
| CC(=O)OCC(=O)CCl [1-acetoxy-3-chloro-2-propanone] | 100 |
| CCOC(=O)C(C)=O [Ethyl pyruvate] | Trace |
| CCOC(=O)CC(=O)c1ccccc1 [Ethyl benzoylacetate] | Trace |
| CCC(=O)c1cccnc1 [3-propionylpyridine] | 11.2 |
| O=Cc1ccc(Cl)cc1 [p-chlorobenzaldehyde] | 58.0 |
| CCOC(=O)C(=O)C(C)C [Ethyl 3-methyl-2-oxobutylate] | Trace |
| O=C1CN2CCC1CC2 [3-quinuclidinone] | Trace |
| CC(=O)c1ccccc1 [Acetophenone] | — |
| CCOC(=O)CC(C)=O [Ethyl 3-oxobutyrate] | 25.5 |
| CC(=O)C(C)O (centres unmarked) [Acetoin] | — |
| O=C(c1ccccc1)C(F)(F)F [2,2,2-trifluoroacetophenone] | 53.8 |
| CCC(=O)c1ccccc1 [Propiophenone] | Trace |
| O=Cc1ccc(O)cc1 [p-hydroxybenzaldehyde] | — |
| CCOC(=O)CC(=O)CCl [Ethyl 4-chloro-3-oxobutyrate] | 212 |
| CC(=O)C(C)=O [Diacetyl] | — |
| O=C(O)C(=O)Cc1ccccc1 [Phenylpyruvic acid] | 12.2 |
| CC(=O)COc1ccccc1 [Phenoxyacetone] | — |
